The source of these data is patent US9505786B2, “Substituted annulated triazines and use thereof” (BAYER INTELLECTUAL PROPERTY GMBH, priority 2012, dated 2016).

The target of test [1] is human phosphodiesterase 5 (PDE 5) (Homo sapiens (Human), UniProt O76074). Put plainly: Inhibition of human phosphodiesterase 5 (PDE 5), SPA assay. Format: biochemical. The note with it: PDE 5 preparation from human platelets, [8-3H] cGMP substrate. Here is the method: B-6. Inhibition of Human Phosphodiesterase 5 (PDE 5)
PDE 5 preparations are obtained from human platelets by disruption (Microfluidizer®, 800 bar, 3 passes), followed by centrifugation (75 000 g, 60 min, 4° C.) and ion exchange chromatography of the supernatant on a Mono Q 10/10 column (linear sodium chloride gradient, elution with a 0.2-0.3M solution of sodium chloride in buffer (20 mM Hepes pH 7.2, 2 mM magnesium chloride). Fractions having PDE 5 activity are combined (PDE 5 preparation) and stored at −80° C.
To determine their in vitro action on human PDE 5, the test substances are dissolved in 100% DMSO and serially diluted. Typically, dilution series (1:3) from 200 μM to 0.091 μM are prepared (resulting final concentrations in the test: 4 μM to 0.0018 μM). In each case 2 μl of the diluted substance solutions are placed into the wells of microtitre plates (Isoplate-96/200W; Perkin Elmer). Subsequently, 50 μl of a dilution of the above-described PDE 5 preparation are added. The dilution of the PDE 5 preparation is chosen such that during the later incubation less than 70% of the substrate are converted (typical dilution: 1:100; dilution buffer: 50 mM Tris/hydrochloric acid pH 7.5, 8.3 mM magnesium chloride, 1.7 mM EDTA, 0.2% BSA). The substrate, [8-^3H] cyclic guanosine-3′,5′-monophosphate (1 μCi/μl; Perkin Elmer) is diluted 1:2000 with assay buffer (50 mM tris/hydrochloric acid pH 7.5, 8.3 mM magnesium chloride, 1.7 mM EDTA) to a concentration of 0.0005 μCi/μl. By addition of 50 μl (0.025 μCi) of the diluted substrate, the enzyme reaction is finally started. The test mixtures are incubated at room temperature for 60 min and the reaction is stopped by adding 25 μl of a suspension of 18 mg/ml yttrium scintillation proximity beads in water (phosphodiesterase beads for SPA assays, RPNQ 0150, Perkin Elmer). The microtitre plates are sealed with a film and left to stand at room temperature for 60 min. Subsequently, the plates are analysed for 30 s per well in a Microbeta scintillation counter (Perkin Elmer). IC50 values are determined using the graphic plot of the substance concentration against percentage PDE 5 inhibition.

Test [2] concerns recombinant guanylate cyclase reporter cell line. Put plainly: Effect on a recombinant guanylate cyclase reporter cell line. Format: cell-based. Here is the method: B-2. Effect on a Recombinant Guanylate Cyclase Reporter Cell Line
The cellular activity of the compounds according to the invention is determined using a recombinant guanylate cyclase reporter cell line, as described in F. Wunder et al., Anal. Biochem. 339, 104-112 (2005).

pIC50: −log10 of the molar value.

A word on the pIC50: it is the IC50 on a negative log10 scale, so that one unit is a factor of ten. A low value points to a large IC50.

In test [1], `CC1(C)C(=O)Nc2nc(-c3nn(Cc4ccccc4F)c4nc(C(F)(F)F)ccc34)nnc21` [Example 19, 3-[1-(2-Fluorobenzyl)-6-(trifluoromethyl)-1H-pyrazolo[3,4-b]pyridin-3-yl]-7,7-dimethyl-5,7-dihydro-6H-pyrrolo[2,3-e][1,2,4]triazin-6-one] showed a pIC50 of 7.42. Moreover, the “MEC (minimum effective concentration)” value in test [2] amounted to 1000 nM.
In test [1], `CC1(CC(=O)O)C(=O)Nc2nc(-c3nn(Cc4ccccc4F)c4ncc(F)cc34)nnc21` (racemic) [Example 52, (rac){3-[5-Fluoro-1-(2-fluorobenzyl)-1H-pyrazolo[3,4-b]pyridin-3-yl]-7-methyl-6-oxo-6,7-dihydro-5H-pyrrolo[2,3-e][1,2,4]triazin-7-yl}acetic acid] showed a pIC50 of 5.41. For the same molecule, in test [2], the “MEC (minimum effective concentration)” value was found to be 1000 nM.
The molecule `CCOC(=O)C1C(=O)Nc2nc(-c3nn(Cc4ccccc4F)c4ncccc34)nnc21` (racemic) [Example 25, (rac) Ethyl 3-[1-(2-fluorobenzyl)-1H-pyrazolo[3,4-b]pyridin-3-yl]-6-oxo-6,7-dihydro-5H-pyrrolo[2,3-e][1,2,4]triazine-7-carboxylate] gave a pIC50 in test [1] of 5.82. The “MEC (minimum effective concentration)” value in test [2] is 100 nM.
For `CC1(C)C(=O)Nc2nc(-c3nn(Cc4ccccc4F)c4ncccc34)nc(Cl)c21` [Example 60, 4-Chloro-2-[1-(2-fluorobenzyl)-1H-pyrazolo[3,4-b]pyridin-3-yl]-5,5-dimethyl-5,7-dihydro-6H-pyrrolo[2,3-d]pyrimidin-6-one], in test [2], the “MEC (minimum effective concentration)” value is given as 300 nM.
Take `CC1(CC2CC2)C(=O)Nc2nc(-c3nn(Cc4ccccc4F)c4ncc(F)cc34)nnc21` (racemic) [Example 5-2, 7-(Cyclopropylmethyl)-3-[5-fluoro-1-(2-fluorobenzyl)-1H-pyrazolo[3,4-b]pyridin-3-yl]-7-methyl-5,7-dihydro-6H-pyrrolo[2,3-e][1,2,4]triazin-6-one]: in test [2], the “MEC (minimum effective concentration)” value was found to be 300 nM.
For the molecule `CC1(C)C(=O)Nc2nc(-c3nn(Cc4ccccc4F)c4ncccc34)nc(CNS(C)(=O)=O)c21` [Example 24, N-({2-[1-(2-Fluorobenzyl)-1H-pyrazolo[3,4-b]pyridin-3-yl]-5,5-dimethyl-6-oxo-6,7-dihydro-5H-pyrrolo[2,3-d]pyrimidin-4-yl}methyl)methanesulphonamide], in test [1], the pIC50 is 7.32. Also, the “MEC (minimum effective concentration)” value in test [2] came out at 30 nM.
For `CCOC(=O)C1(C)C(=O)Nc2nc(-c3nn(Cc4ccccc4F)c4ncccc34)ncc21` (racemic) [Example 33, (rac) Ethyl 2-[1-(2-fluorobenzyl)-1H-pyrazolo[3,4-b]pyridin-3-yl]-5-methyl-6-oxo-6,7-dihydro-5H-pyrrolo[2,3-d]pyrimidine-5-carboxylate] the same measures were 6.06 and 10 nM.
Consider `CCC1(C)C(=O)Nc2nc(-c3nn(Cc4ccccc4F)c4ncc(F)cc34)nnc21` (racemic) [Example 7-2, 7-Ethyl-3-[5-fluoro-1-(2-fluorobenzyl)-1H-pyrazolo[3,4-b]pyridin-3-yl]-7-methyl-5,7-dihydro-6H-pyrrolo[2,3-e][1,2,4]triazin-6-one], for which the “MEC (minimum effective concentration)” value in test [2] was found to be 100 nM.
For the molecule `CCOC(=O)C1(C)CC(=O)Nc2nc(-c3nn(Cc4ccccc4F)c4ncccc34)nnc21` (stereo not drawn) [Example 2, Ethyl 3-[1-(2-fluorobenzyl)-1H-pyrazolo[3,4-b]pyridin-3-yl]-8-methyl-6-oxo-5,6,7,8-tetrahydropyrido[2,3-e][1,2,4]triazine-8-carboxylate], the pIC50 in test [1] is 6.31. Besides, the “MEC (minimum effective concentration)” value in test [2] was determined as 300 nM.
With `Cc1nc(-c2nn(Cc3ccccc3F)c3ncccc23)nc2c1C(C)(C)C(=O)N2` [Example 22, 2-[1-(2-Fluorobenzyl)-1H-pyrazolo[3,4-b]pyridin-3-yl]-4,5,5-trimethyl-5,7-dihydro-6H-pyrrolo[2,3-d]pyrimidin-6-one], the pIC50 in test [1] was 6.89. Besides, the “MEC (minimum effective concentration)” value in test [2] came out at 100 nM.
In test [1], `CC1(C)C(=O)Nc2nc(-c3nn(Cc4ccccc4F)c4ncccc34)nc(CC(N)=O)c21` [Example 61, 2-{2-[1-(2-Fluorobenzyl)-1H-pyrazolo[3,4-b]pyridin-3-yl]-5,5-dimethyl-6-oxo-6,7-dihydro-5H-pyrrolo[2,3-d]pyrimidin-4-yl}acetamide] had a pIC50 of 7.82. The “MEC (minimum effective concentration)” value in test [2] was determined as 30 nM.
Molecule `COc1ccc(Cn2nc(-c3nnc4c(n3)NC(=O)C4(C)C)c3cc(F)cnc32)cc1` [Example 8, 3-[5-Fluoro-1-(4-methoxybenzyl)-1H-pyrazolo[3,4-b]pyridin-3-yl]-7,7-dimethyl-5,7-dihydro-6H-pyrrolo[2,3-e][1,2,4]triazin-6-one] showed a negative-log IC50 (pIC50) in test [1] of 6.82. Moreover, in test [2], the “MEC (minimum effective concentration)” value was 3000 nM.
Take `CC1(CC(=O)O)C(=O)Nc2nc(-c3nn(Cc4ccccc4F)c4ncccc34)nnc21` (racemic) [Example 26, (rac) {3-[1-(2-Fluorobenzyl)-1H-pyrazolo[3,4-b]pyridin-3-yl]-7-methyl-6-oxo-6,7-dihydro-5H-pyrrolo[2,3-e][1,2,4]triazin-7-yl}acetic acid]: the pIC50 in test [1] is 5.47. For the same molecule, in test [2], the “MEC (minimum effective concentration)” value is 300 nM.
The molecule `CCOC(=O)C#Cc1nc(-c2nn(Cc3ccccc3F)c3ncccc23)nc2c1C(C)(C)C(=O)N2` [Example 53, Ethyl 3-{2-[1-(2-fluorobenzyl)-1H-pyrazolo[3,4-b]pyridin-3-yl]-5,5-dimethyl-6-oxo-6,7-dihydro-5H-pyrrolo[2,3-d]pyrimidin-4-yl}prop-2-ynoate] gave a pIC50 in test [1] of 7.39. Further, the “MEC (minimum effective concentration)” value in test [2] turned out to be 100 nM.
`Cc1nc2c(cc1F)c(-c1nnc3c(n1)NC(=O)C3(C)C)nn2Cc1ccccc1F` [Example 21, 3-[5-Fluoro-1-(2-fluorobenzyl)-6-methyl-1H-pyrazolo[3,4-b]pyridin-3-yl]-7,7-dimethyl-5,7-dihydro-6H-pyrrolo[2,3-e][1,2,4]triazin-6-one]: the pIC50 in test [1] is 7.66. Besides, in test [2], the “MEC (minimum effective concentration)” value is recorded as 30 nM.
As to `CCC1(C)C(=O)Nc2nc(-c3nn(Cc4ccccc4F)c4ncc(F)cc34)nnc21` (racemic) [Example 7-1, 7-Ethyl-3-[5-fluoro-1-(2-fluorobenzyl)-1H-pyrazolo[3,4-b]pyridin-3-yl]-7-methyl-5,7-dihydro-6H-pyrrolo[2,3-e][1,2,4]triazin-6-one], the “MEC (minimum effective concentration)” value in test [2] was determined as 100 nM.
For `CC(C)(C)OC(=O)C#Cc1nc(-c2nn(Cc3ccccc3F)c3ncccc23)nc2c1C(C)(C)C(=O)N2` [Example 50, tert-Butyl 3-{2-[1-(2-fluorobenzyl)-1H-pyrazolo[3,4-b]pyridin-3-yl]-5,5-dimethyl-6-oxo-6,7-dihydro-5H-pyrrolo[2,3-d]pyrimidin-4-yl}prop-2-ynoate], the “MEC (minimum effective concentration)” value in test [2] is listed as 300 nM.
`CC1(C)C(=O)Nc2nc(-c3nn(Cc4ccccc4F)c4ncccc34)nc(C#CC(=O)O)c21` [Example 62, 3-{2-[1-(2-Fluorobenzyl)-1H-pyrazolo[3,4-b]pyridin-3-yl]-5,5-dimethyl-6-oxo-6,7-dihydro-5H-pyrrolo[2,3-d]pyrimidin-4-yl}prop-2-ynoic acid]: in test [2], the “MEC (minimum effective concentration)” value turned out to be 30 nM.
Turning to `CC1(C)C(=O)Nc2nc(-c3nn(Cc4ccccc4F)c4ncc(F)cc34)nc(CNC(=O)C3CC3)c21` [Example 56, N-({2-[5-Fluoro-1-(2-fluorobenzyl)-1H-pyrazolo[3,4-b]pyridin-3-yl]-5,5-dimethyl-6-oxo-6,7-dihydro-5H-pyrrolo[2,3-d]pyrimidin-4-yl}methyl)cyclopropanecarboxamide], the “MEC (minimum effective concentration)” value in test [2] is listed as 30 nM.
For the molecule `CC(C)(O)CCc1nc(-c2nn(Cc3ccccc3F)c3ncccc23)nc2c1C(C)(C)C(=O)N2` [Example 59, 2-[1-(2-Fluorobenzyl)-1H-pyrazolo[3,4-b]pyridin-3-yl]-4-(3-hydroxy-3-methylbutyl)-5,5-dimethyl-5,7-dihydro-6H-pyrrolo[2,3-d]pyrimidin-6-one], the “MEC (minimum effective concentration)” value in test [2] is given as 300 nM.
As to `CC1(CC2CC2)C(=O)Nc2nc(-c3nn(Cc4ccccc4F)c4ncc(F)cc34)nnc21` (racemic) [Example 5-1, 7-(Cyclopropylmethyl)-3-[5-fluoro-1-(2-fluorobenzyl)-1H-pyrazolo[3,4-b]pyridin-3-yl]-7-methyl-5,7-dihydro-6H-pyrrolo[2,3-e][1,2,4]triazin-6-one], the “MEC (minimum effective concentration)” value in test [2] was found to be 100 nM.
